Source: US12371454B2, “Cyclic peptide compound having Kras inhibitory action” (priority 2019, dated 2025)
pIC50: −log10 of the molar value. Starred links: 1 amine or outer side, 2 acyl side, 3 side chain; linkers in the order of their positions; H or OH if unused. Positions of bridges follow the written chain, without caps; N, C: chain ends. Non-standard residues stand in square brackets, D forms with d. Residues, ends and D or L forms follow the SMILES beside them. *: point of attachment. hPhe(3-Cl-4-CF3) = N[C@@H](CCc1ccc(C(F)(F)F)c(Cl)c1)C(=O)O; hPhe(3-F,4-CF3) = N[C@@H](CCc1ccc(C(F)(F)F)c(F)c1)C(=O)O; NMeGly(cPent) = CN[C@H](C(=O)O)C1CCCC1; NMe3Pal = CN[C@@H](Cc1cccnc1)C(=O)O; Gly(cPent) = N[C@H](C(=O)O)C1CCCC1; NMeCha = CN[C@@H](CC1CCCCC1)C(=O)O; X2 = C=CC[C@](C)(N[*:1])C(=O)[*:2]; NMeCba = CN[C@@H](CC1CCC1)C(=O)O; NMeChg = CN[C@H](C(=O)O)C1CCCCC1; NMeI = CC[C@H](C)[C@H](NC)C(=O)O; NMeT = CN[C@H](C(=O)O)[C@@H](C)O; NMeD = CN[C@@H](CC(=O)O)C(=O)O; NMeL = CN[C@@H](CC(C)C)C(=O)O; NMeV = CN[C@H](C(=O)O)C(C)C; NMeS = CN[C@@H](CO)C(=O)O; Morpholide = C1CN(*)CCO1; NMeA = CN[C@@H](C)C(=O)O; Piperidide = C1CCN(*)CC1; Ac5c = NC1(C(=O)O)CCCC1; Aze = O=C(O)[C@@H]1CCN1; Isopentyl = CC(C)CC*; Sar = CNCC(=O)O

Columns and labels:
[1] = test system: Human pancreatic cancer cell line AsPC-1; assay: Measurement of AsPC-1 cell growth inhibition (AsPC-1 CGI); format: cell-based; details: 96 h
Method in brief: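 AsPC-1 cells in 15% FBS RPMI-1640 were exposed to test compound for 96 hours at 37° C, with CellTiter-Glo as endpoint.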

[2] = target: T1, Kras and SOS1 (biotin-tagged human Kras loaded with GDP, His-tagged human SOS1) (Homo sapiens, UniProt P01116, G12D); assay: Protein-protein interaction inhibition between Kras and SOS1 (KrasGl2D-SOS PPI) using AlphaScreen; format: binding; details: AlphaScreen; biotin-tagged human Kras loaded with GDP, His-tagged human SOS1; read-out: KRAS G12D-SOS PPI IC50
T1 construct: made in house; host or cells: E. coli (stated for Kras only)
T1 sequence (P01116 1-188 isoform P01116-2 G12D): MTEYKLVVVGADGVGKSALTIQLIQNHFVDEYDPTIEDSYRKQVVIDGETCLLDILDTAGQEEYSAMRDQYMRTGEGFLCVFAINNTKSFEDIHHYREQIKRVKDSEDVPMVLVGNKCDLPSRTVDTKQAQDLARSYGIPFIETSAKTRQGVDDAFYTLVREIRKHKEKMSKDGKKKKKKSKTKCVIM
Method in brief: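 Donor beads (nickel) hold His-SOS1; acceptor beads (streptavidin) hold biotin-Kras bound to GDP. Signal measured at 520-620 nm following 680 nm excitation.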

Question: CC(C)C[C@H]1C(=O)N[C@@H](C2CCCC2)C(=O)N(C)CC(=O)N(C)CC(=O)N(C)[C@@H](CC2CCCCC2)C(=O)N(C)CC(=O)N[C@@H](CCc2ccc(C(F)(F)F)c(Cl)c2)C(=O)N2CCC[C@H]2C(=O)NC2(CCCC2)C(=O)N(C)[C@@H](C(C)C)C(=O)N(C)[C@H](C(=O)N2CCCCC2)CC(=O)N1C [Compound 1064] ([NMeL][Gly(cPent)][Sar][Sar][NMeCha][Sar][hPhe(3-Cl-4-CF3)]P[Ac5c][NMeV][NMeD]-Piperidide; lactam N-11) was tested. Which pIC50 [1] did it give?
Answer: Its pIC50 is 6.30 to 7.00.

Question: What about the pIC50 [2] of the same compound?
Answer: The pIC50 was 8.37.

Question: CC[C@H](C)[C@@H]1NC(=O)[C@H](CC(C)C)N(C)C(=O)C[C@@H](C(=O)N(C)C)N(C)C(=O)[C@H](C2CCCC2)N(C)C(=O)C2(CCCC2)NC(=O)[C@H](Cc2cccnc2)N(C)C(=O)[C@H](CCc2ccc(C(F)(F)F)c(Cl)c2)NC(=O)CN(C)C(=O)[C@H](CC2CCCCC2)N(C)C(=O)[C@@H]2CCN2C(=O)[C@H](C)N(C)C1=O [Compound 1071] ([NMeL]I[NMeA][Aze][NMeCha][Sar][hPhe(3-Cl-4-CF3)][NMe3Pal][Ac5c][NMeGly(cPent)][NMeD]-NMe2; lactam N-11) was tested. Which pIC50 [1] did it give?
Answer: The pIC50 was 6.30 to 7.00.

Question: What about the pIC50 [2] of the same compound?
Answer: The pIC50 was 8.89.

Question: CC[C@H](C)[C@@H]1NC(=O)[C@H](CC(C)C)N(C)C(=O)C[C@@H](C(=O)N2CCCCC2)N(C)C(=O)[C@H](C2CCCCC2)N(C)C(=O)C2(CCCC2)NC(=O)[C@@H]2CCCN2C(=O)[C@H](CCc2ccc(C(F)(F)F)c(Cl)c2)NC(=O)CN(C)C(=O)[C@H]([C@@H](C)OC)N(C)C(=O)CN(C)C(=O)CN(C)C1=O [Compound 1072] ([NMeL]I[Sar][Sar][NMeT](Me)[Sar][hPhe(3-Cl-4-CF3)]P[Ac5c][NMeChg][NMeD]-Piperidide; lactam N-11) was tested. Which pIC50 [1] did it give?
Answer: Its pIC50 is 6.30 to 7.00.

Question: What about the pIC50 [2] of the same compound?
Answer: The pIC50 was 8.92.

Question: With CC[C@H](C)[C@@H]1NC(=O)[C@H](CC(C)C)N(C)C(=O)C[C@@H](C(=O)N2CCCCC2)N(C)C(=O)[C@H](C2CCCC2)N(C)C(=O)C2(CCCC2)NC(=O)[C@@H]2CCCN2C(=O)[C@H](CCc2ccc(C(F)(F)F)c(Cl)c2)NC(=O)CN(C)C(=O)[C@H](CC2CCCCC2)N(C)C(=O)CN(C)C(=O)CN(C)C1=O [Compound 1073] ([NMeL]I[Sar][Sar][NMeCha][Sar][hPhe(3-Cl-4-CF3)]P[Ac5c][NMeGly(cPent)][NMeD]-Piperidide; lactam N-11) as the compound, how does the pIC50 [1] read?
Answer: The pIC50 was 7.30 to 7.70.

Question: What about the pIC50 [2] of the same compound?
Answer: Its pIC50 is 8.68.

Question: What does the source list for CC[C@H](C)[C@@H]1NC(=O)[C@H](CC(C)C)N(C)C(=O)C[C@@H](C(=O)N2CCOCC2)N(C)C(=O)[C@H]([C@@H](C)CC)N(C)C(=O)C2(CCCC2)NC(=O)[C@@H]2CCCN2C(=O)[C@H](CCc2ccc(C(F)(F)F)c(F)c2)NC(=O)CN(C)C(=O)[C@H](C2CCCC2)N(C)C(=O)[C@@H]2CCN2C(=O)[C@H](C)N(C)C1=O [Compound 1098] ([NMeL]I[NMeA][Aze][NMeGly(cPent)][Sar][hPhe(3-F,4-CF3)]P[Ac5c][NMeI][NMeD]-Morpholide; lactam N-11)?
Answer: pIC50 [1]: 7.30 to 7.70; pIC50 [2]: 8.25

Question: C=CC[C@]1(C)NC(=O)[C@@H]2CCCN2C(=O)[C@H](CCc2ccc(C(F)(F)F)c(Cl)c2)NC(=O)CN(C)C(=O)[C@H](CC2CCCCC2)N(C)C(=O)CN(C)C(=O)CN(C)C(=O)[C@H]([C@@H](C)CC)NC(=O)[C@H](CC(C)C)N(C)C(=O)C[C@@H](C(=O)N2CCCCC2)N(C)C(=O)[C@H](C(C)C)N(C)C1=O [Compound 1109] ([NMeL]I[Sar][Sar][NMeCha][Sar][hPhe(3-Cl-4-CF3)]P[X2][NMeV][NMeD]-Piperidide; lactam N-11) was tested. Which pIC50 [1] did it give?
Answer: The pIC50 was 6.30 to 7.00.

Question: And the pIC50 [2]?
Answer: Its pIC50 is 7.64.

Question: Which results are given for CC[C@H](C)[C@@H]1NC(=O)[C@H](CC2CCC2)N(C)C(=O)C[C@@H](C(=O)N2CCCCC2)N(C)C(=O)[C@H](C(C)C)N(C)C(=O)C2(CCCC2)NC(=O)[C@@H]2CCCN2C(=O)[C@H](CCc2ccc(C(F)(F)F)c(Cl)c2)NC(=O)CN(C)C(=O)[C@H](CC2CCCCC2)N(C)C(=O)[C@@H]2CCN2C(=O)[C@H](C)N(C)C1=O [Compound 1114] ([NMeCba]I[NMeA][Aze][NMeCha][Sar][hPhe(3-Cl-4-CF3)]P[Ac5c][NMeV][NMeD]-Piperidide; lactam N-11)?
Answer: pIC50 [1]: 6.30 to 7.00; pIC50 [2]: 7.96

Question: With CC[C@H](C)[C@@H]1NC(=O)[C@H](COCCC(C)C)N(C)C(=O)C[C@@H](C(=O)N2CCCCC2)N(C)C(=O)[C@H](C2CCCCC2)N(C)C(=O)C2(CCCC2)NC(=O)[C@@H]2CCCN2C(=O)[C@H](CCc2ccc(C(F)(F)F)c(Cl)c2)NC(=O)CN(C)C(=O)[C@H](CC2CCCCC2)N(C)C(=O)CN(C)C(=O)CN(C)C1=O [Compound 1115] ([NMeS](Isopentyl)I[Sar][Sar][NMeCha][Sar][hPhe(3-Cl-4-CF3)]P[Ac5c][NMeChg][NMeD]-Piperidide; lactam N-11) as the compound, how does the pIC50 [1] read?
Answer: The pIC50 was 6.30 to 7.00.

Question: And the pIC50 [2]?
Answer: Its pIC50 is 8.60.

Question: CC[C@H](C)[C@@H]1NC(=O)[C@H](CC(C)C)N(C)C(=O)C[C@@H](C(=O)N2CCCCC2)N(C)C(=O)[C@H](C(C)C)N(C)C(=O)C2(CCCC2)NC(=O)[C@@H]2CCCN2C(=O)[C@H](CCc2ccc(C(F)(F)F)c(Cl)c2)NC(=O)CN(C)C(=O)[C@H](CC2CCC2)N(C)C(=O)CN(C)C(=O)CN(C)C1=O [Compound 1124] ([NMeL]I[Sar][Sar][NMeCba][Sar][hPhe(3-Cl-4-CF3)]P[Ac5c][NMeV][NMeD]-Piperidide; lactam N-11) was tested. Which pIC50 [1] did it give?
Answer: The pIC50 was 6.30 to 7.00.

Question: And the pIC50 [2]?
Answer: The pIC50 was 8.15.
